In general, IC50 refers to the point on the concentration scale where inhibition reaches its midpoint. The AC50 is the concentration at which the activity in the assay is half-maximal. Broadly, the EC50 is the concentration needed to bring the measured effect to its halfway point.

Calls of active or inactive are those of the source.

In one assay the target is Beta Lactamase (Pseudomonas aeruginosa, UniProt Q932Y6). Description: beta-lactamase reporter inhibitor potency, dose response, artefact control for TLR9-MyD88 binding inhibitor project, BLA reporter cells, FRET fluorescence (AID 588341).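 Also: cell based assay in CHO-K1 cells stably expressing beta-lactamase.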 It counts as cell-based.
The target in assay [1] is Delta-type opioid receptor (Homo sapiens, UniProt P41143). Put plainly: HTS Image-Based Screen for Antagonists of the DOR Receptor. [Related pubchem assays (depositor defined):AID1777, AID1785, AID1786, AID2133]. It is filed as functional.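 Also: U2OS cells expressing DOR stimulated with 100 nM SNC80 agonist.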
The nature of assay [2]: control 3'UTR Renilla luciferase suppression, dose response, counter-screen for Shn3 inhibitor project, cell-based, Clone20-Shn3RL, cherry-picked (AID 624133). It is filed as functional. In general terms: Counterscreens check selectivity or assay interference.
The target of a further assay is T1, Cysteine protease ATG4B (Homo sapiens, UniProt Q9Y4P1).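 Also: Fluorescence-based dose-response confirmation assay measuring inhibition of ATG4B activity.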
T1 sequence (Q9Y4P1 whole entry): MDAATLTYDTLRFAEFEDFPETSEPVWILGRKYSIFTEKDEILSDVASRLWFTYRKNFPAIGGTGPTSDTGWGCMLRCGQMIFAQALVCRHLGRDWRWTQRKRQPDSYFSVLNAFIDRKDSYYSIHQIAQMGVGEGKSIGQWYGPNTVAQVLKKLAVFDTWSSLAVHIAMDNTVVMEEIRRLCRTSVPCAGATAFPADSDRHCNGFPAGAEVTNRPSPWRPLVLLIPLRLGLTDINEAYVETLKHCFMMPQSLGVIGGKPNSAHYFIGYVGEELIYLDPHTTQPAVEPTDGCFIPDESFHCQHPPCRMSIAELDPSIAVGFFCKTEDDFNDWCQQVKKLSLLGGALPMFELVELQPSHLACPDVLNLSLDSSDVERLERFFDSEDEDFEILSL
It counts as functional.

Assay [3] can be described thus: CEM21 lymphoblast cell cytotoxicity, dose response, cytotoxicity control for viral fusion inhibitor project, CellTiter-Glo luminescence, cherry-picked (AID 652042).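 Also: potency for signal decrease meaning cytotoxicity.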 It is filed as functional, cell-based. (ATP-based viability assays read luminescence as a measure of living cells.)
In a further assay the target is Phospholipase A2 (Homo sapiens, UniProt P04054). It is filed as functional.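 Also: confirmatory dose-response counterscreen on phospholipase A2, testing hits that came from an ultra-high-throughput screen for ATG4B inhibitors.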
Assay [4] has as its target Protein-arginine deiminase type-4 (Homo sapiens, UniProt Q9UM07). Description: human PAD4 inhibitor potency, dose response, biochemical, fluorescence readout (AID 492970).
Assay [5] addresses 1-acylglycerol-3-phosphate O-acyltransferase ABHD5/Perilipin-5 (Homo sapiens, UniProt Q00G26+Q8WTS1). Put plainly: Luminescence-based biochemical high throughput dose response assay for inhibitors of the interaction of the lipase co-activator protein, abhydrolase domain containing 5 (ABHD5) with perilipin-5 (MLDP; PLIN5) (2K validation set). [Related pubchem assays (depositor defined):AID493035, AID493241].

The target in assay [6] is T2, Sphingosine 1-phosphate receptor 4 (Homo sapiens, UniProt O95977).
T2 sequence (O95977 whole entry): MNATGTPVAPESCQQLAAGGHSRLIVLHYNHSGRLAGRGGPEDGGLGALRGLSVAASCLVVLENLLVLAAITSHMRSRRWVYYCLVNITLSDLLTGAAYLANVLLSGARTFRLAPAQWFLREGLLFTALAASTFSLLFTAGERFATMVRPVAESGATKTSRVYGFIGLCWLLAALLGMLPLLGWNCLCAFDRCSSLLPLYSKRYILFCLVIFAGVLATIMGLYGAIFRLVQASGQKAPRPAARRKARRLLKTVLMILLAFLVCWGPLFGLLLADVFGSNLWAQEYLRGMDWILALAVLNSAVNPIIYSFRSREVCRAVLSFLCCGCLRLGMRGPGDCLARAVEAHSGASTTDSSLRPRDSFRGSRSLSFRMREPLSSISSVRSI
Description: Fluorescence dose response cell-based high throughput screening assay for antagonists of the Sphingosine 1-Phosphate Receptor 4 (S1P4). [Related pubchem assays: 1524 (Confirmation in triplicates.), 1510 (Primary screen.)]. It counts as functional.

The target in assay [7] is T3, Mannose-6-phosphate isomerase (Homo sapiens, UniProt P34949).
T3 sequence (P34949 whole entry): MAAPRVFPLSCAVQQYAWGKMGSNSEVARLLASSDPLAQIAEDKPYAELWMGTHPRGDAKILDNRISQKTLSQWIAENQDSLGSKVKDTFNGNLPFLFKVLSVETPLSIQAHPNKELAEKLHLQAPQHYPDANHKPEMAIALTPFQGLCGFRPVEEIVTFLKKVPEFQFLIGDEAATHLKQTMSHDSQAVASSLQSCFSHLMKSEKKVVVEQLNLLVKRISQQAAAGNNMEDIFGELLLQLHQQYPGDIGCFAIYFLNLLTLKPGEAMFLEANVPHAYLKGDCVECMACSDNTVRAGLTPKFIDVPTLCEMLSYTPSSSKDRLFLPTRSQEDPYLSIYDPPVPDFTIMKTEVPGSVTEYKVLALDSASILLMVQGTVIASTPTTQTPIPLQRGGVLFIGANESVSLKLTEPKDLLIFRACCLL
Description: inhibitors of human PMI, primary screen, biochemical, fluorescence intensity, coupled assay (AID 1209).

The target of assay [8] is Heat shock protein HSP 90-alpha (Homo sapiens, UniProt P07900). It is filed as functional, organism-based.
Assay [9] is described as follows: inhibitors of SNCA 5'UTR-driven reporter translation, confirmation, H4 neuroglioma cells, luminescence (AID 1988). It is filed as functional, cell-based.
Assay [10] in a line: insulin promoter down-regulators in MIN6 cells, imaging, high-content screening, mouse beta cells (AID 1628). It is filed as functional.

Sequence of Beta Lactamase (Q932Y6 whole entry): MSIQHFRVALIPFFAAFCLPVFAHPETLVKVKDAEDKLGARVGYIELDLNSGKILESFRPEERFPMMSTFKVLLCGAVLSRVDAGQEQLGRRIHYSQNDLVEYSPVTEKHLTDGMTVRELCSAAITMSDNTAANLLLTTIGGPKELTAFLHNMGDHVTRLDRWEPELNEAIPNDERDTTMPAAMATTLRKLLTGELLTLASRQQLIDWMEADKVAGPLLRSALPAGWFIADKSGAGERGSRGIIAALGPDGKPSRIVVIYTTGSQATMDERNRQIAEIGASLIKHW
Sequence of Protein-arginine deiminase type-4 (Q9UM07 whole entry, the tested form may be a part): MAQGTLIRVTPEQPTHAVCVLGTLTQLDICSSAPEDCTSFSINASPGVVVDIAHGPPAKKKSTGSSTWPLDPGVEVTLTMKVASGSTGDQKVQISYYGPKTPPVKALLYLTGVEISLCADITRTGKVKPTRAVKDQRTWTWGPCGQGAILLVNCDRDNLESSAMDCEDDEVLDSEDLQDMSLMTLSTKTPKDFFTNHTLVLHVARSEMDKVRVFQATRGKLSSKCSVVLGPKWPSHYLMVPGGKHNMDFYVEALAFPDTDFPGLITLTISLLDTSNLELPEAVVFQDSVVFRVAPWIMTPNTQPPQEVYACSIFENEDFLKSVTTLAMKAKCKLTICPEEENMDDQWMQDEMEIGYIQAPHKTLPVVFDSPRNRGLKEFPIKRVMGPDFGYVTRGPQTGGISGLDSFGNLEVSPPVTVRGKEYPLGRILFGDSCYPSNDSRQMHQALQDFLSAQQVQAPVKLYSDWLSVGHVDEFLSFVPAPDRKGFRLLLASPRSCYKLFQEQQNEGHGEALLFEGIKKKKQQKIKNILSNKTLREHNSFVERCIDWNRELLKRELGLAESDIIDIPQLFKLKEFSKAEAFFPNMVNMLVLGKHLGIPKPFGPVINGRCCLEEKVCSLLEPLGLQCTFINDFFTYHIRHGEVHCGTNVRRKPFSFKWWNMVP
Sequence of 1-acylglycerol-3-phosphate O-acyltransferase ABHD5/Perilipin-5 (Q00G26 whole entry, the tested form may be a part): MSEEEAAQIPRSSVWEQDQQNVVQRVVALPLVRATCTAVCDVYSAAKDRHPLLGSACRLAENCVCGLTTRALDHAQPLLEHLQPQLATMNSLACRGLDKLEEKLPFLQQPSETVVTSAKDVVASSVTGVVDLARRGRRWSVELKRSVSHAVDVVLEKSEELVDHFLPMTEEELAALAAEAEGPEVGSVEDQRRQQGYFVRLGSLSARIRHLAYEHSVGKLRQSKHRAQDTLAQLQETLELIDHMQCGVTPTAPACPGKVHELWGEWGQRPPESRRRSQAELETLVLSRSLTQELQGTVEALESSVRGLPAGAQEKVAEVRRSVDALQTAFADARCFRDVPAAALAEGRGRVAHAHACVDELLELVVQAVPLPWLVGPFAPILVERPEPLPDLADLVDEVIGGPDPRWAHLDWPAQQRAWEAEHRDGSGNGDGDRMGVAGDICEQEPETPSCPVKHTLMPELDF
Sequence of 1-acylglycerol-3-phosphate O-acyltransferase ABHD5/Perilipin-5 (Q8WTS1 whole entry, the tested form may be a part): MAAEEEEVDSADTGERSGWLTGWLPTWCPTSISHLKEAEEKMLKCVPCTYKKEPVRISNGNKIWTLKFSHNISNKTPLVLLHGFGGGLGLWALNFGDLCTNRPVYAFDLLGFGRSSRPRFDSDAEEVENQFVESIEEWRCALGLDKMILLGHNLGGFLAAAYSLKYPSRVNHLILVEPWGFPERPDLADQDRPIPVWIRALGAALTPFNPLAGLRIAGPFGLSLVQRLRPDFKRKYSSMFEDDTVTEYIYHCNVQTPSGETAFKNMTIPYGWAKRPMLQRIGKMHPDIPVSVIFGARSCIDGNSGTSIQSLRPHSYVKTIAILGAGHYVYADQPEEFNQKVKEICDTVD
Sequence of Phospholipase A2 (P04054 whole entry): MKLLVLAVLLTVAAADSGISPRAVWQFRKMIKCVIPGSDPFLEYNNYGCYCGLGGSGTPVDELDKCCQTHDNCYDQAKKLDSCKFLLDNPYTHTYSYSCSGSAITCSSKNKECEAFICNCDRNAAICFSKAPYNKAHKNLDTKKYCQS
Sequence of Delta-type opioid receptor (P41143 whole entry): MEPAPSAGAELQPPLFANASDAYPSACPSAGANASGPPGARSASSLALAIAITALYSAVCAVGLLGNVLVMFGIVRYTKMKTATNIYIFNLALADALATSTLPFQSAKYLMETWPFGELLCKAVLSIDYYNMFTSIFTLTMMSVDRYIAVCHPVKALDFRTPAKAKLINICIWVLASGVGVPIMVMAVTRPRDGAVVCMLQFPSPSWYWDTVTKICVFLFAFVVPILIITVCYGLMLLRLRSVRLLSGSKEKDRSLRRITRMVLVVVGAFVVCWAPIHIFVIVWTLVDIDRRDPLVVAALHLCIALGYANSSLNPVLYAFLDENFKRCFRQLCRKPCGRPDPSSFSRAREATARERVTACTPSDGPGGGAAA

As to `CCC(=O)OCCNc1cc(Sc2nccn2C)c2nonc2c1[N+](=O)[O-]`, the IC50 on Beta Lactamase is 8.31 µM (active); in assay [1], 29.7 µM (inactive). The AC50 in [2] was 4.16 µM (active).

On to `O=C1C(=O)c2ccccc2-c2ccccc21` [9,10-PHENANTHRENEQUINONE], for which the IC50 at Cysteine protease ATG4B was 1.25 µM (active); on Phospholipase A2 it was 42.8 µM (inactive); in [4] it was 16 µM (inactive); in [5], 6.44 µM (active); in assay [6] it was 2.03 µM (active). Further, in [3], the AC50 is 1.93 µM (active).

As for `CCOC(=O)C1=C(c2ccc(OC)cc2)C(=O)c2ccccc2C1=O`, the IC50 in assay [7] was 42.4 µM (active).

Consider `O=C1c2cc(F)ccc2-n2c1nc1ccccc1c2=O`, for which, in [8], the AC50 is 3.73 µM (active). Further, in assay [9], the EC50 is 8.84 µM (active).

As to `O=C1C=C(N(CCO)Cc2ccccc2)c2ccccc2C1=O`, the IC50 in assay [10] is 5.11 µM (active).

The values are drawn from ChEMBL document CHEMBL1201862, “PubChem BioAssay data set” (2004).
